Measurements from the NIST ThermoML archive (doi:10.1016/j.fluid.2018.10.006).
Numbers after ± are expanded uncertainties.

Details: Fluid (supercritical or subcritical phases), Coaxial cylinder method

CCCCCC [hexane]
Details | thermal conductivity [W/m/K]
513.09 K, 8500 kPa | 0.07722 ± 0.0036
513.09 K, 8790 kPa | 0.07758 ± 0.0036
513.09 K, 8830 kPa | 0.07762 ± 0.0036
513.09 K, 8882 kPa | 0.07769 ± 0.0036
513.09 K, 9275 kPa | 0.07816 ± 0.0036
513.09 K, 9297 kPa | 0.07816 ± 0.0036
513.09 K, 9300 kPa | 0.07816 ± 0.0036
513.09 K, 9344 kPa | 0.0782 ± 0.0036
513.09 K, 9367 kPa | 0.07824 ± 0.0036
513.09 K, 9700 kPa | 0.07864 ± 0.0036
513.09 K, 9900 kPa | 0.07883 ± 0.0037
513.09 K, 10000 kPa | 0.07894 ± 0.0037
515.56 K, 676 kPa | 0.03834 ± 0.002
515.56 K, 700 kPa | 0.03843 ± 0.002
515.56 K, 900 kPa | 0.03853 ± 0.002
515.56 K, 1220 kPa | 0.039 ± 0.002
515.56 K, 1221 kPa | 0.039 ± 0.002
515.56 K, 1672 kPa | 0.04008 ± 0.0021
515.56 K, 1786 kPa | 0.04038 ± 0.0021
515.56 K, 1822 kPa | 0.04059 ± 0.0021
515.56 K, 2209 kPa | 0.0423 ± 0.0021
515.56 K, 2287 kPa | 0.04275 ± 0.0022
515.56 K, 2404 kPa | 0.04344 ± 0.0022
515.56 K, 2503 kPa | 0.04392 ± 0.0022
515.56 K, 2607 kPa | 0.04465 ± 0.0022
515.56 K, 2688 kPa | 0.04553 ± 0.0023
515.56 K, 2751 kPa | 0.04606 ± 0.0023
515.56 K, 2811 kPa | 0.04699 ± 0.0023
515.56 K, 2856 kPa | 0.04713 ± 0.0023
515.56 K, 2919 kPa | 0.04712 ± 0.0023
515.56 K, 2953 kPa | 0.04782 ± 0.0024
515.56 K, 2989 kPa | 0.04928 ± 0.0024
515.56 K, 3019 kPa | 0.05004 ± 0.0024
515.56 K, 3062 kPa | 0.05082 ± 0.0025
515.56 K, 3072 kPa | 0.05082 ± 0.0025
515.56 K, 3083 kPa | 0.05163 ± 0.0025
515.56 K, 3103 kPa | 0.05247 ± 0.0026
515.56 K, 3114 kPa | 0.05247 ± 0.0026
515.56 K, 3122 kPa | 0.05247 ± 0.0026
515.56 K, 3140 kPa | 0.05247 ± 0.0026
515.56 K, 3153 kPa | 0.05333 ± 0.0026
515.56 K, 3164 kPa | 0.05333 ± 0.0026
515.56 K, 3174 kPa | 0.05422 ± 0.0026
515.56 K, 3180 kPa | 0.05422 ± 0.0026
515.56 K, 3193 kPa | 0.05609 ± 0.0027
515.56 K, 3201 kPa | 0.05609 ± 0.0027
515.56 K, 3209 kPa | 0.05609 ± 0.0027
515.56 K, 3220 kPa | 0.05609 ± 0.0027
515.56 K, 3230 kPa | 0.05808 ± 0.0028
515.56 K, 3235 kPa | 0.05808 ± 0.0028
515.56 K, 3243 kPa | 0.05808 ± 0.0028
515.56 K, 3249 kPa | 0.05808 ± 0.0028
515.56 K, 3257 kPa | 0.06022 ± 0.0029
515.56 K, 3265 kPa | 0.06022 ± 0.0029
515.56 K, 3270 kPa | 0.06022 ± 0.0029
515.56 K, 3275 kPa | 0.06022 ± 0.0029
515.56 K, 3283 kPa | 0.06205 ± 0.0029
515.56 K, 3293 kPa | 0.06205 ± 0.0029
515.56 K, 3301 kPa | 0.06374 ± 0.003
515.56 K, 3309 kPa | 0.06474 ± 0.0031
515.56 K, 3316 kPa | 0.065 ± 0.0031
515.56 K, 3322 kPa | 0.06539 ± 0.0031
515.56 K, 3329 kPa | 0.06578 ± 0.0031
515.56 K, 3334 kPa | 0.06604 ± 0.0031
515.56 K, 3339 kPa | 0.06631 ± 0.0031
515.56 K, 3342 kPa | 0.06658 ± 0.0031
515.56 K, 3347 kPa | 0.06685 ± 0.0032
515.56 K, 3350 kPa | 0.06698 ± 0.0032
515.56 K, 3352 kPa | 0.06712 ± 0.0032
515.56 K, 3357 kPa | 0.06737 ± 0.0032
515.56 K, 3360 kPa | 0.06751 ± 0.0032
515.56 K, 3362 kPa | 0.06759 ± 0.0032
515.56 K, 3368 kPa | 0.06795 ± 0.0032
515.56 K, 3373 kPa | 0.06823 ± 0.0032
515.56 K, 3386 kPa | 0.06866 ± 0.0032
515.56 K, 3394 kPa | 0.06909 ± 0.0032
515.56 K, 3426 kPa | 0.06997 ± 0.0033
515.56 K, 3453 kPa | 0.06911 ± 0.0032
515.56 K, 3462 kPa | 0.06911 ± 0.0032
515.56 K, 3482 kPa | 0.06911 ± 0.0032
515.56 K, 3490 kPa | 0.06911 ± 0.0032
515.56 K, 3499 kPa | 0.06911 ± 0.0032
515.56 K, 3520 kPa | 0.06911 ± 0.0032
515.56 K, 3541 kPa | 0.06911 ± 0.0032
515.56 K, 3550 kPa | 0.06911 ± 0.0032
515.56 K, 3566 kPa | 0.06911 ± 0.0032
515.56 K, 3579 kPa | 0.06769 ± 0.0032
515.56 K, 3614 kPa | 0.06769 ± 0.0032
515.56 K, 3638 kPa | 0.06769 ± 0.0032
515.56 K, 3682 kPa | 0.06769 ± 0.0032
515.56 K, 3700 kPa | 0.06769 ± 0.0032
515.56 K, 3750 kPa | 0.06938 ± 0.0032
515.56 K, 3800 kPa | 0.06938 ± 0.0032
515.56 K, 3841 kPa | 0.06944 ± 0.0033
515.56 K, 3900 kPa | 0.0695 ± 0.0033
515.56 K, 3928 kPa | 0.06953 ± 0.0033
515.56 K, 3941 kPa | 0.06959 ± 0.0033
515.56 K, 3995 kPa | 0.06965 ± 0.0033
515.56 K, 4000 kPa | 0.06968 ± 0.0033
515.56 K, 4025 kPa | 0.06968 ± 0.0033
515.56 K, 4104 kPa | 0.06983 ± 0.0033
515.56 K, 4200 kPa | 0.07004 ± 0.0033
515.56 K, 4307 kPa | 0.07016 ± 0.0033
515.56 K, 4388 kPa | 0.07034 ± 0.0033
515.56 K, 4400 kPa | 0.0704 ± 0.0033
515.56 K, 4488 kPa | 0.07058 ± 0.0033
515.56 K, 4537 kPa | 0.07067 ± 0.0033
515.56 K, 4593 kPa | 0.0708 ± 0.0033
515.56 K, 4620 kPa | 0.07089 ± 0.0033
515.56 K, 4700 kPa | 0.07098 ± 0.0033
515.56 K, 4790 kPa | 0.07114 ± 0.0033
515.56 K, 4800 kPa | 0.07117 ± 0.0033
515.56 K, 4830 kPa | 0.07123 ± 0.0033
515.56 K, 4900 kPa | 0.07129 ± 0.0033
515.56 K, 5000 kPa | 0.07151 ± 0.0033
515.56 K, 5100 kPa | 0.07167 ± 0.0034
515.56 K, 5130 kPa | 0.0717 ± 0.0034
515.56 K, 5200 kPa | 0.07182 ± 0.0034
515.56 K, 5300 kPa | 0.07198 ± 0.0034
515.56 K, 5400 kPa | 0.07217 ± 0.0034
515.56 K, 5580 kPa | 0.07243 ± 0.0034
515.56 K, 5600 kPa | 0.07246 ± 0.0034
515.56 K, 5690 kPa | 0.07265 ± 0.0034
515.56 K, 5740 kPa | 0.07275 ± 0.0034
515.56 K, 5800 kPa | 0.07285 ± 0.0034
515.56 K, 5900 kPa | 0.07301 ± 0.0034
515.56 K, 6050 kPa | 0.07327 ± 0.0034
515.56 K, 6060 kPa | 0.07327 ± 0.0034
515.56 K, 6080 kPa | 0.0733 ± 0.0034
515.56 K, 6300 kPa | 0.07366 ± 0.0034
515.56 K, 6380 kPa | 0.0738 ± 0.0034
515.56 K, 6460 kPa | 0.07393 ± 0.0034
515.56 K, 6610 kPa | 0.07417 ± 0.0034
515.56 K, 6920 kPa | 0.07464 ± 0.0035
515.56 K, 6950 kPa | 0.07468 ± 0.0035
515.56 K, 7020 kPa | 0.07478 ± 0.0035
515.56 K, 7100 kPa | 0.07488 ± 0.0035
515.56 K, 7470 kPa | 0.0754 ± 0.0035
515.56 K, 7560 kPa | 0.07554 ± 0.0035
515.56 K, 7570 kPa | 0.07557 ± 0.0035
515.56 K, 7600 kPa | 0.0756 ± 0.0035
515.56 K, 7840 kPa | 0.07592 ± 0.0035
515.56 K, 7870 kPa | 0.07595 ± 0.0035
515.56 K, 7940 kPa | 0.07602 ± 0.0035
515.56 K, 8050 kPa | 0.07617 ± 0.0035
515.56 K, 8100 kPa | 0.0762 ± 0.0035
515.56 K, 8140 kPa | 0.07624 ± 0.0035
515.56 K, 8230 kPa | 0.07638 ± 0.0035
515.56 K, 8370 kPa | 0.07656 ± 0.0036
515.56 K, 8470 kPa | 0.07663 ± 0.0036
515.56 K, 8540 kPa | 0.0767 ± 0.0036
515.56 K, 8730 kPa | 0.07695 ± 0.0036
515.56 K, 8870 kPa | 0.07714 ± 0.0036
515.56 K, 9080 kPa | 0.07739 ± 0.0036
515.56 K, 9100 kPa | 0.07739 ± 0.0036
525.42 K, 1000 kPa | 0.0403 ± 0.0021
525.42 K, 1500 kPa | 0.0416 ± 0.0021
525.42 K, 1975 kPa | 0.04209 ± 0.0021
525.42 K, 1984 kPa | 0.04209 ± 0.0021
525.42 K, 2100 kPa | 0.04213 ± 0.0021
525.42 K, 2200 kPa | 0.04213 ± 0.0021
525.42 K, 2300 kPa | 0.04213 ± 0.0021
525.42 K, 2404 kPa | 0.04213 ± 0.0021
525.42 K, 2423 kPa | 0.04213 ± 0.0021
525.42 K, 2425 kPa | 0.04213 ± 0.0021
